Publication PMC11925246 (Journal of Bacteriology, 2025)
Values joined by “and” are separate entries in the source; they are usually repeats but may differ in a detail not shown here. Identical values can stand only once. Like-named read-outs stand apart in the source and are kept apart here.

Columns and labels:
[1] = molecular target: periplasmic domain of Rsc1598 (Ralstonia pseudosolanacearum, UniProt Q8XZ08); assay: biochemical; assay type: binding, R. pseudosolanacearum OE1-1
hrpB expression [2] = assay type: cell-based, R. pseudosolanacearum; settings: hrpB-lacZ resting cells, 25°C; for Induction of hrpB expression by sugars: sugar 0.01%, 20 h (Fig. 6); for Induction of hrpB expression by organic acids: organic acid 0.1 mM, 20 h (Fig. 5)
hrpB expression [3] = assay type: cell-based, R. pseudosolanacearum; settings: malic acid 0.5 mM or sucrose 0.01%, quarter-strength M63 with 0.25% glucose, 28 °C, 5 h (Fig. S4)

Chain of periplasmic domain of Rsc1598 (Q8XZ08 99-319 limits assumed): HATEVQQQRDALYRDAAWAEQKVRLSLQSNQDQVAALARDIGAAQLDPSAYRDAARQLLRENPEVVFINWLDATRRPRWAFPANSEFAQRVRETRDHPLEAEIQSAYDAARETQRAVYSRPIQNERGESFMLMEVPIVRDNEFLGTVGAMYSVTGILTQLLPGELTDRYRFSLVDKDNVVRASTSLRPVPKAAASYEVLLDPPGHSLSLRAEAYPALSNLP

Row | Structure (SMILES) | Kd ([1]; Kd) | Induction of hrpB expression by sugars (hrpB expression [2]) | Induction of hrpB expression by organic acids (hrpB expression [2]) | further results
1 | O=C(O)/C=C/C(=O)O [Fumaric acid, fumaric acid] | 47 µM and 56.3 µM |  |  | Kd ([1]; pH 7.6): smaller than that of malic acid
2 | O=C(O)C(=O)O [Oxalic acid, oxalic acid] | 229 µM and 151 µM |  |  | 
3 | OC[C@H]1OC(O)[C@H](O)[C@@H](O)[C@@H]1O (some centres unmarked) [glucose] |  | induced hrpB expression |  | 
4 | O=CO [Formic acid, formic acid] |  |  |  | Kd ([1]; ITC single titration, ligand 5 mM, 25°C, 50 mM sodium phosphate buffer pH 7.6, protein 40 µM, read-out: Kd): 71.5 µM; Kd ([1]; ITC single titration, ligand 6 mM, 25°C, 50 mM sodium phosphate buffer pH 7.6, protein 40 µM, read-out: Kd): 231 µM
5 | O=C(O)[C@@H]1CCC(O)=N1 [L-pyroglutamic acid] | 41 µM and 43.2 µM and 194 µM |  | induced high levels of hrpB expression | 
6 | O=C(CO)[C@@H](O)[C@H](O)[C@H](O)CO [fructose] |  | induced hrpB expression |  | 
7 | O=C(O)CCC(=O)O [Succinic acid, succinic acid] | 29.5 µM and 190 µM |  | induced high levels of hrpB expression | 
8 | O=C(O)CC(O)C(=O)O (centres unmarked) [Malic acid, malic acid] | 68.4 µM and 64.3 µM and 89 µM and 65 µM |  | induced high levels of hrpB expression | Induction of hrpB-lacZ expression in growing cells (hrpB expression [3]): induced hrpB expression
9 | O=C(O)CC(O)(CC(=O)O)C(=O)O [Citric acid, citric acid] |  |  |  | Kd ([1]; Kd, Average of titrations, 25°C, pH 7.6): 155 ± 80.7 µM; Kd ([1]; Kd, ITC single titration, ligand 4 mM, 25°C, 50 mM sodium phosphate buffer pH 7.6, protein 40 µM): 137 µM; Kd ([1]; Kd, ITC single titration, ligand 5 mM, 25°C, 50 mM sodium phosphate buffer pH 7.6, protein 40 µM): 84.5 µM; Kd ([1]; Kd, ITC single titration, ligand 6 mM, 25°C, 50 mM sodium phosphate buffer pH 7.6, protein 40 µM): 243 µM
10 | OC[C@H]1O[C@@](CO)(O[C@H]2O[C@H](CO)[C@@H](O)[C@H](O)[C@H]2O)[C@@H](O)[C@@H]1O [sucrose] |  | the most effective sugar |  | Induction of hrpB-lacZ expression in growing cells (hrpB expression [3]): minimal induction
